Measurements as given in paper PMC9313812, “The Pseudo‐Natural Product Rhonin Targets RHOGDI” (Angewandte Chemie (International Ed. in English), 2022).
Read-outs that look alike come from different tables or passages of the source.

Test system: C3H/10T1/2 cells
Experiment: Osteoblast differentiation assay (ODA): purmorphamine-induced osteogenesis, alkaline phosphatase luminescence readout
Format: cell-based, mouse
Set-up: key to Osteogenesis IC50: Compounds are marked inactive when no inhibition was observed at the highest test concentration of 30 µM
Settings: for Osteogenesis IC50: Table S7, mean ± SD, highest test concentration 30 µM; for Osteogenesis IC50 / IC50: 1.5 µM purmorphamine, 96 h, n=3; for IC50: Rac, Cdc42 and ROCK inhibitors, read-out: Osteogenesis IC50 ± SD; for Inhibition of Hh-/purmorphamine-induced osteogenesis (in words): C3H/10T1/2 cells
Procedure: Supplementary Table S7. Inhibition of osteogenesis assay. C3H10T1/2 cells were incubated with 1.5 µM purmorphamine and compounds or DMSO as a control for 96 h. The activity of alkaline phosphatase was assessed by means of a luminescence readout. Values for cells, which were treated with DMSO and purmorphamine, were set to 100% and data were measured in […]
concentration of 30 µM. All data are mean values of three independent experiments (n = 3) ± […]
Compound Osteogenesis IC50
(1 picture or pasted object on this page, not shown here)
NIH/3T3 cells were obtained from DSMZ, Germany (DSMZ ACC 59) and were cultured in DMEM (high glucose) supplemented with 10% heat-inactivated FCS, 2 mM L -glutamine and 1 mM sodium pyruvate. Shh -LIGHT2 cells (NIH/3T3 cells stably transfected with a Gli-responsive firefly luciferase reporter plasmid and a pRL-TK constituitive Renilla luciferase expression vector)[4] were cultured in the same culturing medium supplemented with 400 μg ml −1 G418 and 150 μg ml −1 Zeocin as selecting agents. The murine osteoblasts C3H/10T1/2 (ATCC CCL-226) were obtained from ATCC, USA and were cultured in DMEM (high glucose) supplemented with 10% heat-inactivated FCS, 6 mM L -glutamine, 1 mM sodium pyruvate. HEK293T cells (ATCC, England) were grown in DMEM containing 10% FBS, 100 U ml −1 penicillin and 0.1 mg ml −1 streptomycin. All cell lines were maintained at 37 °C and 5% CO 2 in a humidified atmosphere. All the cell lines were regularly assayed for mycoplasma and were confirmed to be mycoplasma-free. Transfection of DNA constructs and siRNAs were performed using FuGENE HD (Promega), Lipofectamine® LTX (Invitrogen) and DharmaFECT™ (GE Healthcare) transfection reagent according to the manufacturer’s […]
Osteoblast differentiation assay
The osteoblast differentiation assay was performed by the Compound Management and Screening Center (COMAS) in Dortmund, Germany. C3H/10T1/2 cells were seeded (800 per well) in white 384-well plates or (6000 per well) in 96-well plates. After incubation for 16 h, compounds or DMSO were added to the cells using the acoustic nanoliter dispenser ECHO 520 (Labcyte) and osteogenesis was induced with 1.5 µM purmorphamine. Plates were incubated for 96 h at 37 °C and 5% CO2. Alkaline phosphatase activity was measured by replacing the medium with osteogenesis-lysis buffer (lysis buffer: 100 mM Tris pH 9.5, 250 mM NaCl, 25 mM MgCl2, 1% Triton X-100, sterile filtered) containing 1:100 chemiluminescent substrate CDP-Star® (Promega, 384-well plates: 35 µL, 96-well plates: 50 µL) for one hour in the dark at 25 °C. In 384-well plates, the luminescence was monitored using the Paradigm plate reader (Molecular Devices, USA), whereas Spark plate reader (Tecan, Austria) was used to measure luminescence in 96-well plates. Dose-response analyses were performed for all hit compounds […]
using a three-fold dilution series starting from a concentration of 30 μM. Half-maximal inhibitory concentrations (IC50) were calculated using the Quattro software suite (Quattro Research, Planegg, Germany) or GraphPad Prism 7 (GraphPad, USA).
The effect of test compounds on the viability of C3H/10T1/2 cells was determined by CellTiter-Glo Luminescence cell viability assay (Promega). Cells were treated as described for the osteogenesis assay prior to addition of the CellTiter-Glo® reagent according to manufacturer’s protocol. Compounds causing at least a 50% reduction in the osteogenesis assay and retaining cell viability of at least 80% were considered as hits. Dose-response analyses were performed for all hit compounds using a three-fold dilution series starting from a concentration of 30 μM. Half-maximal inhibitory concentrations (IC50) were calculated using the Quattro software suite (Quattro Research GmbH). […]

[1] = Mus musculus, C3H 10T1/2, Table S13

Compound | Osteogenesis IC50 | further results
COC(=O)C12NC(c3ccc(C)cc3)(C3C(=O)N(C)C(=O)C31)C1C(=O)N(c3ccccc3)C(=O)C12 (stereo not drawn) [5b] | inactive | 
Cc1cc(C)nc(NS(=O)(=O)c2ccc(NC(=S)NC(=O)COc3ccc(Br)cc3Cl)cc2)n1 [ZCL278, reference compound] |  | Osteogenesis, activity at 2 µM (Table S13, 2 µM, DMSO + purmorphamine = 100%): 75%
O=c1cc(CN2CCOCC2)occ1OCCCCCSc1ccnc2cc(C(F)(F)F)ccc12 [EHT 1864, reference compound] |  | IC50 (Table S13): > 2 µM
COC(=O)C12NC(c3ccc(Br)cc3)(C3C(=O)N(c4ccccc4)C(=O)C31)C1C(=O)N(C3CCCCC3)C(=O)C12 (stereo not drawn) [5f] | inactive | 
COC(=O)C12NC(c3ccc(Br)cc3)(C3C(=O)N(C)C(=O)C31)C1C(=O)N(c3ccccc3)C(=O)C12 (stereo not drawn) [5a] | inactive | 
COc1cc(C2=NC(C)=C(C(=O)Nc3ccc4[nH]ncc4c3)C(c3ccc(Cl)cc3F)N2)ccn1 (stereo not drawn) [GSK534911A, reference compound] |  | IC50 [1]: 1.55 ± 0.5 µM
CCCN1C(=O)C2C(C1=O)C1(c3ccc(Br)cc3)NC2(C(=O)OC)C2C(=O)N(c3ccccc3)C(=O)C21 (stereo not drawn) [5e] | inactive | 
COC(=O)C12NC(c3ccc(Cl)cc3)(C3C(=O)N(C)C(=O)C31)C1C(=O)N(c3ccccc3)C(=O)C12 (stereo not drawn) [5d] | inactive | 
CN(C)CCOc1cc(-c2cn[nH]c2)ccc1NC(=O)C1COc2ccccc2O1 (stereo not drawn) [SR-3677, reference compound] |  | IC50 [1]: 1.72 ± 0.1 µM
Cc1cncc2cccc(S(=O)(=O)N3CCCNC[C@@H]3C)c12 [H-1152, reference compound] |  | IC50 (Table S13): 2.87 µM
COC(=O)c1ccc(C23NC(C(=O)OC)(C4C(=O)N(C)C(=O)C42)C2C(=O)N(c4ccccc4)C(=O)C23)cc1 (stereo not drawn) [5c] | inactive | 
CCn1c2ccccc2c2cc(Nc3ccnc(NCCCN4CCOCC4)n3)ccc21 [EHop-016, reference compound] |  | IC50 (Table S13): 0.881 ± 0.08 µM

The next lines start with results.

Osteogenesis IC50 | Compound | further results
inactive | COC(=O)[C@@]1([C@H](CC(=O)c2ccc(Br)cc2)c2ccc(C(=O)NCCOCCOCCNC(=O)OC(C)(C)C)cc2)N=C(c2ccc(Br)cc2)[C@H]2C(=O)N(C)C(=O)[C@H]21 [S10b] | 
inactive | COC(=O)C1(C2CC(=O)N(c3ccccc3)C2=O)N=C(c2ccc(C(C)(C)C)cc2)C2C(=O)N(C)C(=O)C21 (stereo not drawn) [6d] | 
inactive | COC(=O)C1(C2CC(=O)N(c3ccccc3)C2=O)N=C(c2ccc(Br)cc2)C2C(=O)N(C)C(=O)C21 (stereo not drawn) [6a] | 
inactive | COC(=O)C=C(C(=O)OC)C1(C(=O)OC)N=C(c2ccc(Br)cc2)C2C(=O)N(c3ccccc3)C(=O)C21 (stereo not drawn) [7i] | 
inactive | COC(=O)C1(C2CC(=O)N(c3ccccc3)C2=O)N=C(c2ccc(F)cc2)C2C(=O)N(C)C(=O)C21 (stereo not drawn) [6c] | 
inactive | COC(=O)C=C(C(=O)OC)C1(C(=O)OC)N=C(c2ccc(Br)cc2)C2C(=O)N(C)C(=O)C21 (stereo not drawn) [7h] | 
inactive | COC(=O)C1(C2CC(=O)N(c3ccccc3)C2=O)N=C(c2cccc(OC)c2)C2C(=O)N(C)C(=O)C21 (stereo not drawn) [6e] | 
inactive | COC(=O)C1(C2CC(=O)N(c3ccccc3)C2=O)N=C(c2ccc(C(F)(F)F)cc2)C2C(=O)N(C)C(=O)C21 (stereo not drawn) [6b] | 
inactive | COC(=O)C1(C(CC(=O)c2ccc(Br)cc2)c2ccccc2)N=C(c2ccc(Br)cc2)C2C(=O)N(C)C(=O)C21 (stereo not drawn) [7b] | Inhibition of Hh-/purmorphamine-induced osteogenesis (in words): abolished activity
inactive | COC(=O)C1(CCC(C)=O)N=C(c2ccc(Br)cc2)C2C(=O)N(c3ccccc3)C(=O)C21 (stereo not drawn) [7f] | Inhibition of Hh-/purmorphamine-induced osteogenesis (in words): activity was lost
